Source: patent US20230255943A1, “MMP-9 AND MMP-12 INHIBITION FOR TREATING SPINAL CORD INJURY OR RELATED INJURY TO NEUROLOGICAL TISSUE” (The University of Birmingham, priority 2020, published 2023)

Experiments:
Type in all cases: in vivo, mouse
[1] = tested on: mice with DC crush injury; test: Spinal cord water content (oedema) after DC crush injury in mice; settings: IP, twice daily
[2] = tested on: mice with DC crush injury; test: Tape removal test (sensory function) after DC injury in mice
Experimental: (§1) Functional testing after DC lesion and treatment was carried out as described previously (N. D. Fagoe, C. L. Attwell, R. Eggers, L. Tuinenbreijer, D. Kouwenhoven, J. Verhaagen, M. R. Mason, Evaluation of Five Tests for Sensitivity to Functional Deficits following Cervical or Thoracic Dorsal Column Transection in the Rat. PLoS One 11, e0150141 (2016)).
(§2) Briefly, animals (n=18/group) were first trained to master traversing a horizontal ladder for 1 w before functional testing. Baseline parameters were established by performing tests at 2-3d before injury. Animals were then tested at 2d, 1 w, 2 w, 3 w, 4 w, 5 w and 6 w after DC injury+treatment. Experiments were performed by an observer masked to the treatment conditions in the same order and time of day with each test performed for 3 individual trials.
Tape removal test (sensory function): The tape removal test determines touch perception from the left hind paw. After holding animals with both hind-paws extended, the time it took for the animal to detect and remove a piece of tape of 15×15 mm (Kip Hochkrepp, Bocholt, Germany) affixed to the palm of the left hind-paw was recorded and used to calculate the mean sensing time.

[3] = tested on: mice with DC crush injury; test: Horizontal ladder test (locomotor function) after DC injury in mice
Experimental: as §1, §2
Horizontal ladder test: This tests the animals locomotor function and is performed on a 0.9-meter-long horizontal ladder with a diameter of 15.5 cm and randomly adjusted rungs with variable gaps of 3.5-5.0 cm. Animals were assessed traversing the ladder and the left and right rear paw slips were recorded along with the total number of steps and the mean error rate as: the number of slips/total number of steps.

[4] = tested on: IL-1β, TNF-α and IL-6; test: Proinflammatory pain markers after CC SCI in mice; settings: oral gavage immediately after injury
Experimental: CC SCI was administered at the T7-T8 vertebral level after exposure of T6-T9 by laminectomy. The aneurysm clip applicator was oriented in a bilateral direction and an aneurysm clip with a closing force of 24 g was applied extradurally for 60 s, as described previously (A. S. Rivlin, C. H. Tator, Effect of duration of acute spinal cord compression in a new acute cord injury model in the rat. Surg Neurol 10, 38-43 (1978):E. Esposito, I. Paterniti, E. Mazzon, T. Genovese, M. Galuppo, R. Meli, P. Bramanti, S. Cuzzocrea, MK801 attenuates secondary injury in a mouse experimental compression model of spinal cord trauma. BMC Neurosci 12, 31 (2011)).
The urinary bladders were manually emptied twice daily until bladder function was regained. Adult male C57BL6 mice (25-30 g) (Charles River, Margate, UK) were randomly allocated to either: (1), Sham (control; laminectomy but no CC SCI); (2), CC SCI+vehicle; (3), CC SCI+200 mg/kg AZD1236 (oral); (4), CC SCI+5 mg/kg AZD1236 (it). All experiments were performed with n=6 mice/group and repeated on 3 independent occasions (total=18 mice/group/test).
The lesion site+5 mm either side (DC and CC SCI, n=6 mice/rats/group, 2 independent repeats (total n=12 mice/rats/group)) was dissected and rapidly frozen in liquid N2 and stored at −80° C. until required. […] The levels of mRNA of MMP-9, MMP-12, IL-1β, TNF-α and IL-6 were determined using pre-validated mouse primer sequences from complimentary DNA prepared from extracted mRNA and qRT-PCR was performed using a LightCycler PCR machine (Roche, Burgess Hill, UK) (M. L. Read, S. Mir, R. Spice, R. J. Seabright, E. L. Suggate, Z. Ahmed, M. Berry, A. Logan, Profiling RNA interference (RNAi)-mediated toxicity in neural cultures for effective short interfering RNA design. J Gene Med 11, 523-534 (2009)). […] Fold changes were computed using the ΔΔCt method (M. L. Read, S. Mir, R. Spice, R. J. Seabright, E. L. Suggate, Z. Ahmed, M. Berry, A. Logan, Profiling RNA interference (RNAi)-mediated toxicity in neural cultures for effective short interfering RNA design. J Gene Med 11, 523-534 (2009).

[5] = optimal doses, 24 h delay vs immediate

| SMILES | SCI-induced oedema with tool inhibitors singly or in combination (FIG. 3D) [1] | sensory function, 24-h delayed treatment [2, 5] | improvement in sensory function ([2]; oral) [%] | mean tape sensing and removal time ([2]; oral, by 3 weeks) | locomotor function, 24-h delayed treatment [3, 5] | improvement in locomotor function ([3]; oral) [%] | mean error ratio, ladder crossing test ([3]; oral, by 2 weeks after injury) | proinflammatory pain markers after CC injury, comparison with pain medications (FIG. 7) [4] |
| --- | --- | --- | --- | --- | --- | --- | --- | --- |
| CCN(CC)Cc1cc(C)c(N(Cc2ccccc2)S(=O)(=O)c2ccc(OC)cc2)c(C(=O)NO)c1 [MMP-9 Inhibitor I, reference compound] | suboptimal therapeutic benefits | – | – | – | – | – | – | – |
| C[C@]1(CS(=O)(=O)N2CC=C(C#Cc3cnc(C4CC4)nc3)CC2)NC(=O)NC1=O [AZD1236] | – | equally as effective as immediate delivery | 85 | indistinguishable from sham-treated groups | equally as effective as immediate delivery | 85 | indistinguishable from sham-treated animals | significantly attenuates |
